Test results published in patent publication US9555050B2 (BIOGEN MA INC., priority 2012, dated 2017).

molecular target: T1, Human ATX protein (Homo sapiens, UniProt Q13822); assay: ATX biochemical FRET assay with FS-3 substrate; settings: FS-3 substrate 2 μM, ATX 1.0 μg/mL, 30 min preincubation, 2 hours at room temperature
T1 construct: made in house
Source text: ATX (Autotaxin) is a 125 KDa glycoprotein with lysophospholipase D (LPLD) activity that generates the bioactive lipid lysophosphatidic acid (LPA) from lysophosphatidylcholine (LPC). The ATX biochemical assay utilizes a FRET (fluorescence resonance energy transfer) technology platform. The fluorescence signal of FRET substrate FS-3 is quenched due to intra-molecular FRET of a fluorophore to a non-fluorescing quencher (Ferguson, C. G., et al., Org Lett. 2006 May 11; 8(10): 2023-2026, which is incorporated by reference in its entirety). ATX catalyzes the hydrolysis of the substrate which separates the dabsyl quencher from the fluorescein reporter, which becomes fluorescent. The reaction is monitored by a SpectraMax M5 (Molecular Devices, Sunnyvale, Calif.) with at excitation wavelength 485 nm and emission wavelength […].
Fatty acid free-BSA (Sigma A8806): 10 mg/mL in H2O, stored at 4° C.
2×ATX assay buffer: 100 mM Tris, 280 mM NaCl, 10 mM KCl, 2 mM CaCl2, 2 mM MgCl2, pH 7.4.
Human ATX protein: expressed and purified in house. Stored at −80° C.
Substrate FS-3 (Echelon, L-2000): 100 μg in 77.74.L H2O (1 mM stock), stored at −20° C.
384-well flat bottom plates—Corning #3575.
Compound dilution—All compounds were provided at 10 mM in 100% DMSO. In the first well, 2 μL of 10 mM compound was added to 78 μL of DMSO (1:40 dilution). In subsequent wells 3-fold dilution (total 10 dilutions) were performed.
1×ATX assay buffer was made up with a final concentration of 1 mg/mL fatty acid free-BSA using 2×ATX assay buffer, 10 mg/ml fatty acid free-BSA and ddH2O.
ATX protein was diluted with 1×ATX assay buffer to a concentration of 1.32 μg/mL (1.32×). 38 μL was added per well to the assay plate. The final concentration of ATX in the reaction as 1.0 μg/mL.
2 μL per well of compounds was transferred to provide the desired concentration. The plate was centrifuged, then incubated at room temperature for 30 minutes on the shaker.
FS-3 was diluted with 1×ATX assay buffer to a concentration of FS-3 of 10 μM (5×). Then, 10 μL was added per well to the assay plate. The final concentration of FS-3 in the reaction was 2 μM. The plate was centrifuged. The plate was kept shaking at room temperature for 2 hours. Because FS-3 substrate is light sensitive, plates were kept covered and protected from light.
Fluorescence was measured using SpectraMax M5 (excitation at 485 nm/emission at 538 nm, top read).

IC50 [nM]	SMILES
≤ 250	CC(C(=O)O)[C@H]1CCCN(Cc2ccc3c(C(F)(F)F)c(O[C@H]4CC[C@@H](C(F)(F)F)CC4)ccc3c2)C1 (mixture of isomers) [Example 102, (S)-2-((R)-1-((5-(trifluoromethyl)-6-((cis-4-(trifluoromethyl)cyclohexyl)oxy)naphthalen-2-yl)methyl)piperidin-3-yl)propanoic acid]
≤ 100	CC(c1ccc2c(C(F)F)c(O[C@H]3CC[C@@H](C)CC3)ccc2c1)N1CCC(C(=O)O)CC1 (relative stereo) [Example 55, 1-(1-(6-((cis-4-Methylcyclohexyl)oxy)-5-(difluoromethyl)naphthalen-2-yl)ethyl)piperidine-4-carboxylic acid]
≤ 100	CCC(c1ccc2c(C(F)F)c(O[C@H]3CC[C@@H](C)CC3)ccc2c1)N1CCC(C(=O)O)CC1 (relative stereo) [Example 58, 1-(1-(6-((cis-4-Methylcyclohexyl)oxy)-5-(difluoromethyl)naphthalen-2-yl)propyl)piperidine-4-carboxylic acid]
≤ 250	O=C(O)CC1CCN(Cc2ccc3c(C(F)(F)F)c(O[C@H]4CC[C@@H](C(F)(F)F)CC4)ccc3c2)C1 (relative stereo) [Example 64, 1-((5-(trifluoromethyl)-6-((cis-4-(trifluoromethyl)cyclohexyl)oxy)-naphthalen-2-yl)methyl)pyrrolidine-3-acetic acid]
≤ 500	O=C(O)C1CCC(NCc2ccc3c(C(F)(F)F)c(O[C@H]4CC[C@@H](C(F)(F)F)CC4)ccc3c2)C1 (relative stereo) [Example 66, 1-((5-(trifluoromethyl)-6-((cis-4-(trifluoromethyl)cyclohexyl)oxy)-naphthalen-2-yl)methyl)aminocyclopentane-3-carboxylic acid]
≤ 250	O=C(O)CC1CCCN(Cc2ccc3c(C(F)(F)F)c(O[C@H]4CC[C@@H](C(F)(F)F)CC4)ccc3c2)C1 (relative stereo) [Example 67, 1-((5-(trifluoromethyl)-6-((cis-4-(trifluoromethyl)cyclohexyl)oxy)-naphthalen-2-yl)methyl)piperidine-3-acetic acid]
≤ 500	CC1CN(Cc2ccc3c(C(F)(F)F)c(O[C@H]4CC[C@@H](C(F)(F)F)CC4)ccc3c2)CCC1C(=O)O (relative stereo) [Example 74, 1-((5-(trifluoromethyl)-6-((cis-4-(trifluoromethyl)cyclohexyl)oxy)-naphthalen-2-yl)methyl)-3-methylpiperidine-4-carboxylic acid]
≤ 500	O=C(O)C1CCCN(Cc2ccc3c(C(F)(F)F)c(O[C@H]4CC[C@@H](C(F)(F)F)CC4)ccc3c2)CC1 (relative stereo) [Example 76, 1-((5-(trifluoromethyl)-6-((cis-4-(trifluoromethyl)cyclohexyl)oxy)-naphthalen-2-yl)methyl)azepane-4-carboxylic acid]
≤ 500	NC1(C(=O)O)CCN(Cc2ccc3c(C(F)(F)F)c(O[C@H]4CC[C@@H](C(F)(F)F)CC4)ccc3c2)C1 (relative stereo) [Example 78, 1-((5-(trifluoromethyl)-6-((cis-4-(trifluoromethyl)cyclohexyl)oxy)-naphthalen-2-yl)methyl)-3-aminopyrrolidine-3-carboxylic acid]

Further lines, the molecule ahead of its results:

SMILES	IC50 [nM]
O=C(O)CC1CCCCN1Cc1ccc2c(C(F)(F)F)c(O[C@H]3CC[C@@H](C(F)(F)F)CC3)ccc2c1 (relative stereo) [Example 27, 2-(1-((5-(trifluoromethyl)-6-((cis)-4-(trifluoromethyl)cyclohexyloxy)naphthalen-2-yl)methyl)piperidin-2-yl)acetic acid]	≤ 250
O=C(O)C1CCCCN1Cc1ccc2c(C(F)(F)F)c(O[C@H]3CC[C@@H](C(F)(F)F)CC3)ccc2c1 (relative stereo) [Example 29, 1-((5-(trifluoromethyl)-6-((cis)-4-(trifluoromethyl)cyclohexyloxy)naphthalen-2-yl)methyl)piperidine-2-carboxylic acid]	≤ 500
O=C(O)C1CCCN(C(=O)c2ccc3c(C(F)(F)F)c(O[C@H]4CC[C@@H](C(F)(F)F)CC4)ccc3c2)CC1 (relative stereo) [Example 31, 1-(5-(trifluoromethyl)-6-((cis)-4-(trifluoromethyl)cyclohexyloxy)-2-naphthoyl)azepane-4-carboxylic acid]	≤ 500
O=C(O)CC1CN(Cc2ccc3c(C(F)F)c(O[C@H]4CC[C@@H](C(F)(F)F)CC4)ccc3c2)CCO1 (relative stereo) [Example 32, 2-(4-((5-(difluoromethyl)-6-((cis)-4-(trifluoromethyl)cyclohexyloxy)naphthalen-2-yl)methyl)morpholin-2-yl)acetic acid]	≤ 500
CC1(C)C(NCc2ccc3c(C(F)F)c(O[C@H]4CC[C@@H](C(F)(F)F)CC4)ccc3c2)CC1C(=O)O (relative stereo) [Example 33, 3-((5-(difluoromethyl)-6-((cis)-4-(trifluoromethyl)cyclohexyloxy)naphthalen-2-yl)methylamino)-2,2-dimethylcyclobutanecarboxylic acid]	≤ 500
O=C(O)C1CN(Cc2ccc3c(C(F)(F)F)c(O[C@H]4CC[C@@H](C(F)(F)F)CC4)ccc3c2)CCC1O (relative stereo) [Example 35, 4-hydroxy-1-((5-(trifluoromethyl)-6-((cis)-4-(trifluoromethyl)cyclohexyloxy)naphthalen-2-yl)methyl)piperidine-3-carboxylic acid]	≤ 500
CCC(NC1CC(C(=O)O)C1(C)C)c1ccc2c(C(F)(F)F)c(O[C@H]3CC[C@@H](C)CC3)ccc2c1 (relative stereo) [Example 36, 2,2-dimethyl-3-(1-(6-((cis)-4-methylcyclohexyloxy)-5-(trifluoromethyl)naphthalen-2-yl)propylamino)cyclobutanecarboxylic acid]	≤ 500
CC(C)C(NC1CC(C(=O)O)C1(C)C)c1ccc2c(C(F)(F)F)c(O[C@H]3CC[C@@H](C(F)(F)F)CC3)ccc2c1 (relative stereo) [Example 39, 2,2-dimethyl-3-(2-methyl-1-(5-(trifluoromethyl)-6-((cis)-4-(trifluoromethyl)cyclohexyloxy)naphthalen-2-yl)propylamino)cyclobutanecarboxylic acid]	≤ 250
CC(C)CC(NC1CC(C(=O)O)C1(C)C)c1ccc2c(C(F)(F)F)c(O[C@H]3CC[C@@H](C(F)(F)F)CC3)ccc2c1 (relative stereo) [Example 40, 2,2-dimethyl-3-(3-methyl-1-(5-(trifluoromethyl)-6-((cis)-4-(trifluoromethyl)cyclohexyloxy)naphthalen-2-yl)butylamino)cyclobutanecarboxylic acid]	≤ 250
CC(NCc1ccc2c(C(F)(F)F)c(O[C@H]3CC[C@@H](C(F)(F)F)CC3)ccc2c1)C1CCC(C(=O)O)CC1 (relative stereo) [Example 41, 4-(1-((5-(trifluoromethyl)-6-((cis)-4-(trifluoromethyl)cyclohexyloxy)naphthalen-2-yl)methylamino)ethyl)cyclohexanecarboxylic acid]	≤ 500
CC(c1ccc2c(C(F)(F)F)c(O[C@H]3CC[C@@H](C)CC3)ccc2c1)N1CCC(C(=O)O)CC1 (relative stereo) [Example 45, 1-(1-(5-trifluoromethyl-6-(cis-4-methylcyclohexyloxy)naphthalene-2-yl)ethyl)-piperidine-4-carboxylic acid]	≤ 500
C[C@H]1CC[C@@H](Oc2ccc3cc(CN4CCC(CC(=O)O)C4)ccc3c2C(F)(F)F)CC1 (relative stereo) [Example 46, 1-((5-trifluoromethyl-6-(cis-4-methylcyclohexyloxy)naphthalene-2-yl)methyl)-pyrrolidine-3-acetic acid]	≤ 500
C[C@H]1CC[C@@H](Oc2ccc3cc(CN4CCCCC(C(=O)O)C4)ccc3c2C(F)(F)F)CC1 (relative stereo) [Example 48, 1-((5-trifluoromethyl-6-(cis-4-methylcyclohexyloxy)naphthalene-2-yl)methyl)-azepane-3-carboxylic acid]	≤ 500
CCC(c1ccc2c(C(F)(F)F)c(O[C@H]3CC[C@@H](C)CC3)ccc2c1)N1CCC(C(=O)O)CC1 (relative stereo) [Example 50, 1-(1-(6-((cis-4-Methylcyclohexyl)oxy)-5-(trifluoromethyl)naphthalen-2-yl)propyl)piperidine-4-carboxylic acid]	≤ 500
